Measurements from paper PMC3447897 (Diabetes, 2012).
Residues, ends and D or L forms follow the SMILES beside them.

Legend:
HLA-B7.2 = HLA-B7.2 (Homo sapiens, UniProt P01889); experiment: HLA-B7 peptide binding affinity assay
[1] = tested on: epitope-specific TMr+CD8+ T cells; details: median over 7 HLA-A2+ new-onset T1D patients; cited from earlier work

Sequence of HLA-B7.2 (P01889 25-299 limits assumed): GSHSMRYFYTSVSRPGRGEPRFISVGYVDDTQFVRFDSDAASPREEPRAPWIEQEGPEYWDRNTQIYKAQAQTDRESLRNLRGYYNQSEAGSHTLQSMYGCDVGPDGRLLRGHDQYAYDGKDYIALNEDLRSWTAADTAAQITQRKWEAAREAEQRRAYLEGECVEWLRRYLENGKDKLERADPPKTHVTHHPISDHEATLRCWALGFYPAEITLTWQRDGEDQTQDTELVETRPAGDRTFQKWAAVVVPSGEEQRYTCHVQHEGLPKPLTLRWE
Sequence of HLA-B7.2 (P61769 21-119 partner): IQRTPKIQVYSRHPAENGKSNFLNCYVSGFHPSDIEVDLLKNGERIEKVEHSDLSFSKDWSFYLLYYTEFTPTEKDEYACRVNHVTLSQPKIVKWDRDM

Molecule: CC[C@H](C)[C@H](N)C(=O)N1CCC[C@H]1C(=O)N[C@@H](CO)C(=O)N[C@@H](CC(=O)O)C(=O)N[C@@H](CC(C)C)C(=O)N[C@@H](CCC(=O)O)C(=O)N[C@@H](CCCNC(=N)N)C(=O)N[C@@H](CCCNC(=N)N)C(=O)N[C@H](C(=O)N[C@@H](CC(C)C)C(=O)O)[C@@H](C)CC [GAD311–320] (H-IPSDLERRIL-OH)
- Kd (HLA-B7.2): 100 nM

Molecule: CC[C@H](C)[C@H](NC(=O)[C@@H](NC(=O)[C@@H]1CCCN1C(=O)[C@H](C)N)C(C)C)C(=O)N[C@@H](CCCCN)C(=O)N[C@@H](C)C(=O)N[C@@H](CCCNC(=N)N)C(=O)N[C@@H](CCSC)C(=O)N[C@@H](CCSC)C(=O)O [GAD530–538] (H-APVIKARMM-OH)
- Kd (HLA-B7.2): 61 nM

Molecule: CC(C)C[C@H](NC(=O)[C@H](C)NC(=O)[C@H](CC(C)C)NC(=O)[C@H](CC(C)C)NC(=O)[C@H](C)NC(=O)[C@H](CC(C)C)NC(=O)[C@H](CC(C)C)NC(=O)[C@@H]1CCCN1C(=O)[C@@H](N)CC(C)C)C(=O)O [PPI8–16] (H-LPLLALLAL-OH)
- Kd (HLA-B7.2): 1090 nM

Molecule: PPI6–14: HLA-A2–restricted preproinsulin epitope used for comparison (RLLPLLALL; UniProt P01308 6-14, looked up, fragment)
- percent of epitope-specific T cells expressing IFNG mRNA, HLA-A2–restricted [1]: 60%
- percent of epitope-specific T cells expressing TGFB mRNA, HLA-A2–restricted [1]: 13%
